This passage reports TGI results from PubChem BioAssay (NCI).

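These data come from cells grown in 96-well plates and exposed to compound for 48 hours at five concentrations. The concentration for full growth arrest is given as TGI.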

Test systems include HOP-62 NSCLC; NCI/ADR-RES ovarian; CAKI-1 renal; MCF7 breast; HCT-116 colon; OVCAR-3 ovarian; SN12C renal; TK-10 renal; MOLT-4 leukemia; LOX IMVI melanoma; CCRF-CEM leukemia; SK-OV-3 ovarian; U251 CNS; UACC-257 melanoma; MDA-MB-231 breast; EKVX NSCLC; MDA-N; SR leukemia.
Common to all, as to experiment: DTP human tumour cell line panel, 48 h

The term TGI denotes the concentration at which net growth stops. As to `Cc1c(C#N)c2ccccc2c2nc3ccccc3n12`, the TGI with HOP-62 NSCLC, in the experiment with NCI/ADR-RES ovarian, in the experiment on CAKI-1 renal, with MCF7 breast, with HCT-116 colon and with OVCAR-3 ovarian was greater than 100 µM each time. For the same molecule, the TGI in the experiment on SN12C renal, in the experiment with TK-10 renal, in the experiment on MOLT-4 leukemia, in the experiment on LOX IMVI melanoma, in the experiment on CCRF-CEM leukemia and in the experiment on SK-OV-3 ovarian was greater than 100 µM throughout. The TGI is greater than 100 µM with U251 CNS; greater than 100 µM with UACC-257 melanoma; 86.9 µM in the experiment on MDA-MB-231 breast; greater than 100 µM in the experiment on EKVX NSCLC; greater than 100 µM in the experiment with MDA-N.
As to `O=C1N(c2ccccc2)C2(c3ccccc3)CC3CCCC13S2` (centres undefined), the total growth inhibition concentration (TGI) in the experiment on HOP-62 NSCLC, in the experiment with NCI/ADR-RES ovarian, in the experiment on CAKI-1 renal, in the experiment with MCF7 breast, in the experiment on HCT-116 colon and with SR leukemia was greater than 100 µM throughout. Moreover, the total growth inhibition concentration (TGI) in the experiment with OVCAR-3 ovarian is greater than 100 µM; in the experiment with SN12C renal, greater than 100 µM; with TK-10 renal, 1.84 µM; with MOLT-4 leukemia, greater than 100 µM; in the experiment on LOX IMVI melanoma, greater than 100 µM; with CCRF-CEM leukemia it was greater than 100 µM. Also, the TGI with SK-OV-3 ovarian was greater than 100 µM; in the experiment with U251 CNS, greater than 100 µM; in the experiment with UACC-257 melanoma it was 51.1 µM; in the experiment with MDA-MB-231 breast it was greater than 100 µM; with EKVX NSCLC, greater than 100 µM.
`O=[N+]([O-])c1ccc2[nH]nc(OCc3ccccn3)c2c1`: the concentration for total growth inhibition (TGI) in the experiment with HOP-62 NSCLC, in the experiment with NCI/ADR-RES ovarian, in the experiment on CAKI-1 renal, in the experiment on HCT-116 colon, with SR leukemia and with OVCAR-3 ovarian was greater than 100 µM in each case. Further, the TGI in the experiment on SN12C renal, with TK-10 renal, in the experiment on MOLT-4 leukemia, with LOX IMVI melanoma, with CCRF-CEM leukemia and in the experiment with SK-OV-3 ovarian was greater than 100 µM in each case. The concentration for total growth inhibition (TGI) in the experiment with U251 CNS, in the experiment with UACC-257 melanoma, with MDA-MB-231 breast, with EKVX NSCLC and with MDA-N was greater than 100 µM each time.
For the molecule `n1onc2c1NC1Nc3nonc3NC1N2` (centres undefined), the concentration for total growth inhibition (TGI) with HOP-62 NSCLC, in the experiment on NCI/ADR-RES ovarian, in the experiment with CAKI-1 renal, with MCF7 breast, in the experiment with HCT-116 colon and with OVCAR-3 ovarian was greater than 100 µM throughout. Moreover, the TGI with SN12C renal, with TK-10 renal, with MOLT-4 leukemia, in the experiment with LOX IMVI melanoma, in the experiment with CCRF-CEM leukemia and with SK-OV-3 ovarian was greater than 100 µM each time. The total growth inhibition concentration (TGI) in the experiment on U251 CNS, in the experiment on EKVX NSCLC and in the experiment on MDA-N was greater than 100 µM each time.
`COc1ccc(/C=C/c2sc3ccccc3[n+]2CCCCI)cc1OC`: the TGI with HOP-62 NSCLC, in the experiment on NCI/ADR-RES ovarian, in the experiment with CAKI-1 renal, with MCF7 breast, with HCT-116 colon and with OVCAR-3 ovarian was greater than 10 µM in each case. Further, the TGI with SN12C renal, in the experiment on TK-10 renal, in the experiment on MOLT-4 leukemia, in the experiment on LOX IMVI melanoma, in the experiment with CCRF-CEM leukemia and in the experiment with SK-OV-3 ovarian was greater than 10 µM throughout. Further, the concentration for total growth inhibition (TGI) with U251 CNS, in the experiment with UACC-257 melanoma, in the experiment with MDA-MB-231 breast, in the experiment with EKVX NSCLC and with MDA-N was greater than 10 µM throughout.
For the molecule `COc1cc(/C=N/n2c(Cc3ccc(Cl)cc3)n[nH]c2=O)cc(OC)c1OC`, the TGI in the experiment with HOP-62 NSCLC, with NCI/ADR-RES ovarian, with CAKI-1 renal, with MCF7 breast, in the experiment with HCT-116 colon and in the experiment with OVCAR-3 ovarian was greater than 100 µM throughout. For the same molecule, the TGI in the experiment with SN12C renal, in the experiment with MOLT-4 leukemia, in the experiment with CCRF-CEM leukemia, in the experiment with SK-OV-3 ovarian, in the experiment on U251 CNS and with UACC-257 melanoma was greater than 100 µM in each case. The concentration for total growth inhibition (TGI) with MDA-MB-231 breast, with EKVX NSCLC and with MDA-N was greater than 100 µM in each case.
For the molecule `Cn1ccc(C(=O)N2CCSC2=S)c(OCc2ccccc2)c1=O`, the TGI was greater than 100 µM in the experiment with NCI/ADR-RES ovarian; greater than 100 µM in the experiment on CAKI-1 renal; greater than 100 µM in the experiment on HCT-116 colon; 93.6 µM in the experiment on SR leukemia; greater than 100 µM in the experiment on SN12C renal; greater than 100 µM in the experiment with TK-10 renal. The TGI with LOX IMVI melanoma, with CCRF-CEM leukemia, with U251 CNS, in the experiment with UACC-257 melanoma, in the experiment on MDA-MB-231 breast and in the experiment on MDA-N was greater than 100 µM each time.
Turning to `Cc1ccc(Cc2n[nH]c(=O)n2/N=C\CC/C=N\n2c(Cc3ccc(C)cc3)n[nH]c2=O)cc1`, the total growth inhibition concentration (TGI) was 24.6 µM in the experiment with HOP-62 NSCLC; 49.9 µM with NCI/ADR-RES ovarian; greater than 100 µM in the experiment with CAKI-1 renal; greater than 100 µM in the experiment with MCF7 breast; greater than 100 µM in the experiment with HCT-116 colon; greater than 100 µM with OVCAR-3 ovarian. The TGI with SN12C renal, with TK-10 renal, in the experiment on MOLT-4 leukemia, in the experiment with LOX IMVI melanoma, in the experiment on CCRF-CEM leukemia and in the experiment with SK-OV-3 ovarian was greater than 100 µM in each case. The TGI in the experiment on U251 CNS is 53.7 µM; in the experiment on UACC-257 melanoma, greater than 100 µM; with MDA-MB-231 breast, greater than 100 µM; in the experiment with EKVX NSCLC, greater than 100 µM; with MDA-N, greater than 100 µM.
On to `O=C(N/N=C(/COc1ccc(Cl)cc1)N=Cc1cccnc1)c1ccncc1`, for which the total growth inhibition concentration (TGI) in the experiment with HOP-62 NSCLC, in the experiment on NCI/ADR-RES ovarian, in the experiment with CAKI-1 renal, in the experiment with MCF7 breast, in the experiment on HCT-116 colon and with OVCAR-3 ovarian was greater than 100 µM throughout. Besides, the TGI in the experiment on SN12C renal, in the experiment with TK-10 renal, in the experiment on MOLT-4 leukemia, in the experiment with LOX IMVI melanoma, with CCRF-CEM leukemia and in the experiment on SK-OV-3 ovarian was greater than 100 µM each time. Besides, the TGI was greater than 100 µM with U251 CNS; greater than 100 µM in the experiment on UACC-257 melanoma; greater than 100 µM in the experiment on MDA-MB-231 breast; greater than 100 µM in the experiment with EKVX NSCLC; 65.8 µM in the experiment with MDA-N.
